Results as given in patent US11517581B2, “Zika virus protease inhibitors and methods of use thereof” (priority 2017, dated 2022).
Converted amounts (≈) assume the structure as drawn. “Also recorded” adds a separate entry of the source.

Key:
[1] = tested on: ZIKV (Puerto Rico strain PRVABC59) in Vero cells; experiment: Viral load reduction assay, Vero cells; format: cell-based, Zika virus; details: culture supernatants
Procedure: (§1) A clinical isolate of ZIKV (Puerto Rico strain PRVABC59) obtained from a patient in the recent South American epidemic was kindly provided by Brandy Russell and Barbara Johnson, Centers for Disease Control and Prevention, USA. The virus was cultured and titrated as we previously described with slight modifications (Chan et al., 2016b; Zhou et al., 2014). The virus was amplified by three additional passages in Vero cells (ATCC) in minimum essential medium (MEM) supplemented with 1% fetal bovine serum (FBS, Gibco™, Life Technologies Corporation, Massachusetts, USA) and 100 units/ml penicillin plus 100 μg/ml streptomycin to make working stocks of the virus (4×10^6 50% tissue culture infectious dose (TCID50)/ml). For virus titration, aliquots of ZIKV were applied on confluent Vero cells in 96-well plates for the TCID50 assay as was previously described with slight modifications (Chan et al., 2016b; Zhou et al., 2014). Briefly, serial 10-fold dilutions of ZIKV were inoculated in a Vero cell monolayer in quadruplicate and cultured in penicillin/streptomycin-supplemented MEM and 1% FBS. […] Viral titer was calculated using the Reed and Munch endpoint method. One TCID50 was interpreted as the amount of virus that causes cytopathic effect in 50% of inoculated wells.

ZIKV NS2B-NS3 protease [2] = biological target: T1, ZIKV NS2B-NS3 protease (Zika virus, UniProt A0A024B7W1, DEL1468-1502); format: biochemical; details: 10 μM substrate, 5 nM protease
ZIKV [3] = experiment: Time-of-drug-addition assay in Vero cells; format: cell-based, Zika virus
Procedure: Briefly, Vero cells were seeded in 24-well plates (2×10^5 cells/well). The cells were inoculated with ZIKV (MOI=2) and then incubated for 1 h for virus internalization. The viral inoculum was then removed and the cells were washed twice with PBS. […] At 18 hpi, the cell culture supernatant of each time point experiment was collected for viral load measurement using qRT-PCR.

ZIKV [4] = experiment: Dexamethasone-immunosuppressed mouse model of disseminated ZIKV infection; format: in vivo, BALB/c mice
Procedure: Approval was obtained from the Committee on the Use of Live Animals in Teaching and Research of The University of Hong Kong. […] Phosphate-buffered saline (PBS) was used to dilute the virus stocks to the desired concentration, and inocula were back-titrated to verify the dose given. On the day of virus inoculation, a dose of the virus equivalent to 6×10^6 TCID50 (3.24×10^6 plaque forming units) in […] of PBS was inoculated via the intraperitoneal route into mice under ketamine (100 mg/kg) and xylazine (10 mg/kg) anesthesia. Mice in the negative-control groups were injected with the same volume of PBS. Mice were monitored three times each day for clinical signs of disease and a numerical score was assigned at each observation as previously described (Chan et al., 2016c). Three mice per group were sacrificed at 5 dpi for virological, histological, and immunohistochemistry analyses. The remaining mice were sacrificed at 14 dpi or euthanized when there was ≥20% weight loss or ≥10% weight loss with ≥1 clinical sign. Samples of major organs were collected at necropsy for virological, histological, and immunohistochemical analyzes as we previously described (Chan et al., 2016c. Chan et al., 2017b). Blood samples were also collected for RNA extraction and qRT-PCR analysis.

[5] = tested on: ZIKV (Puerto Rico strain PRVABC59); experiment: Viral load reduction assay (qRT-PCR) in Huh-7 cells; format: cell-based; details: Zika virus, 0.05 MOI, 48 hours post-infection, supernatant qRT-PCR
Procedure: as §1

[6] = Cell viability (MTT) assay in Vero cells; format: cell-based; details: African green monkey
Procedure: Briefly, Vero or Huh-7 cells (4×10^4 cells/well) were incubated with different concentrations of individual drug for 24 h, followed by the addition of 10 μl/well of 5 mg/ml MTT substrate. The monolayers were incubated as above for 4 h (away from light). Finally, 100 μl of 10% sodium dodecyl sulfate (SDS) with 0.01M HCl was added and further incubated at 37° C. with 5% CO2 overnight. […] Briefly, the drug compounds were diluted with serum-free MEM and added to confluent Vero cells in 96-well culture plates (4×10^4 cells/well) in triplicate for 2 h at 37° C. After incubation, the drug-containing media were removed, and ZIKV (multiplicity of infection, MOI=0.0002) was added together with fresh drug-compound media to each well. Following 1 h of adsorption at 37° C., the virus-compound mixture was removed and the cells were washed twice with MEM to remove unbound virus. Subsequently, media with antiviral compounds were added to the cells for further incubation for 6 days at 37° C. in a 5% CO2 humidified environment. CPE was examined by inverted light microscopy (Chan et al., 2016b). Thereafter, MTT substrate and SDS-HCl were added sequentially as mentioned above. The half maximal inhibitory concentration (IC50) and CC50 were calculated using Sigma plot (SPSS) in an Excel add-in ED50V10.

ZIKV NS2B-NS3 protease [7] = biological target: T1, ZIKV NS2B-NS3 protease; experiment: Enzyme kinetic experiments, mode of protease inhibition; format: biochemical; details: 5 nM protease, substrate 0-100 μM, drug 0-1000 μg/ml; global R^2=0.99
Procedure: Hydrogen bonds and hydrophobic contact areas are represented by dashed lines and the two brackets, respectively. The main interacting residues are labeled. The dashed lines represent bonds between hydrogen and acceptor atoms that are involved. […] In the assay, concentration of ZIKV NS2B-NS3 protease was fixed as 5 nM, while different concentrations of substrate (100, 50, 25, 12.5, 6.25, 3.125 and 0 μM) were added to plot the enzyme kinetic curves. Four concentrations of the drug (1000, 250, 62.5 and 0 μg/ml) were tested individually against the different concentrations of substrate. The experiments were repeated twice for confirmation. The data were analyzed for mode of inhibition by GraphPad Prism 6 in the module of enzyme kinetics. R^2>0.95 was considered as statistically significant.
To explore the mode of protease inhibition, enzyme kinetic experiments were performed in the presence or absence of the drug.

T1 sequence (A0A024B7W1 1502-1672, added parts left off, stated change not applied): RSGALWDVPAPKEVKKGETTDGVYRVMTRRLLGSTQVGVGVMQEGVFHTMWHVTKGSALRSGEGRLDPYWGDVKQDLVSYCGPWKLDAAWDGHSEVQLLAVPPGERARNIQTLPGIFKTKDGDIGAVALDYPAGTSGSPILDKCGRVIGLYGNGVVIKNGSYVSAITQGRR

## CO[C@@H]1[C@@H](OC(N)=O)[C@@H](O)[C@H](Oc2ccc3c(O)c(NC(=O)c4ccc(O)c(CC=C(C)C)c4)c(=O)oc3c2C)OC1(C)C [Novobiocin]
[1]
  Reduction in virus titer: dose-dependent reduction in virus titer
ZIKV NS2B-NS3 protease [2]
  Effect of increasing drug concentrations on protease activity: dose-dependent reduction in protease activity
ZIKV [3]; 100 μg/ml added at 0, 3, 6, 9, or 12 hpi, MOI 2, P<0.05
  Viral loads at 18 hpi, drug added during virus replication stage: significantly reduced
ZIKV [3]; 100 μg/ml at 0-1 hpi or at 14 hpi
  Inhibitory activity, drug added at adsorption or release stage: No significant inhibitory activity
ZIKV [3]; 100 μg/ml, −1 to 0 hpi
  ZIKV attachment, cells pretreated with drug: not affected
ZIKV [4]; 100 mg/kg q12 h sc 1-13 dpi, vs 0% untreated control mice, P<0.05
  Survival: 100%
ZIKV [4]; 5 dpi
  ZIKV-NS1 antigen expression in organ tissues (immunohistochemical staining): minimal; also recorded: rarely detected
ZIKV [4]; 5 dpi and 14 dpi, incl. testis and kidney
  Mean viral loads in the blood and the major organ tissues: significantly reduced
ZIKV [4]; ZIKV-inoculated, 100 mg/kg q12 h sc
  Weight loss after dexamethasone withdrawal: ≤ 8%
ZIKV [4]; ZIKV-inoculated, 100 mg/kg q12 h sc, recovered at 13-14 dpi
  Clinical symptoms after dexamethasone withdrawal: minimal clinical symptoms
ZIKV [4]; after dexamethasone withdrawal, 12 or 14 dpi
  Inflammatory infiltrates in organ tissues (H&E): little inflammatory infiltrate; also recorded: no or mild inflammatory infiltrate, and preserved tissue architecture; also recorded: minimal inflammatory infiltrates
ZIKV [4]; at both 5 dpi and 14 dpi, qRT-PCR normalized by β-actin
  Reduction of mean viral loads in blood and most major organ tissues vs untreated control mice: ≥ 2 log
[5]
  IC50: 38.1 ± 4.53 µg/mL (≈ 62.3 µM)
[6]
  CC50 at 24 h: 850 µg/mL (≈ 1390 µM)
ZIKV NS2B-NS3 protease [7]
  Mode of protease inhibition: competitive
